{
  "source": "patent US20150166524A1",
  "about": "“CRYSTALLINE FORM OF MASITINIB” (SANDOZ AG, priority 2013, published 2015)",
  "key": {"[1]": {"assay": "Dynamic Vapour Sorption (DVS) hygroscopicity", "assay_type": "physicochemical", "procedure": "Dynamic Vapour Sorption (DVS) was performed using a Hiden Analytical Instruments IGAsorp Vapour Sorption Balance. Approximately 30 mg of sample was placed into a wire-mesh vapour sorption balance pan, loaded into the IGAsorp vapour sorption balance and held at 25° C.±0.1° C. The sample was subjected to a step profile from 40% RH to 90% RH at 10% increments, followed by desorption from 90% RH to 0% RH at 10% increments and a second adsoriotn cycle from 0% RH to 90% RH. The equilibrium criterion was set to 99.0% step completion within a minimum of 60 minutes and a maximum of 5 hours for each increment. The weight change during the sorption cycle was monitored, allowing for the hygroscopic nature of the sample to be determined. The data collection interval was in seconds.\nThe hygrosopicity of masitinib mesylate form H as obtained from example 2 was assessed by DVS. The DVS isotherm was initiated at 40% r.h. and increased to 70% r.h. The weight gain in this relative humidity interval was below 0.27% (w/w)."}, "[2]": {"settings": "cited from earlier work; for polymorphic conversion: DRX2: upon temperature increase, DRX3: outside dry conditions"}, "[3]": {"settings": "cited from earlier work"}, "[4]": {"assay": "Behaviour on heating by TG/DTA", "assay_type": "physicochemical", "settings": "lost small amounts of water", "procedure": "Thermogravimetric analyses were carried out on a Mettler Toledo TGA/DSC1 STARe. The calibration standards were indium and tin. Samples were placed in an aluminium sample pan, inserted into the TG furnace and accurately weighed. The heat flow signal was stabilised for one minute at 30° C., prior to heating to 270° C. in a stream of nitrogen at a rate of 10° C./minute.\nMasitinib mesylate (25 mg) was charged into a scintillation vial followed by methanol (containing small amounts of water; 1.0 mL). The suspension was then heated until the masitinib mesylate had dissolved. The masitinib mesylate solution in methanol was then allowed to slowly cool to room temperature. The crystals which formed were then harvested by filtration and analyzed by XRPD and TG/DTA."}, "[5]": {"settings": "as described in response to the eESR"}},
  "data": [
    {"substance": "Masitinib mesylate [form H]", "values": [
      {"measurement": "hygroscopicity compared with form I", "setting": "[1]; DVS", "value": "less hygroscopic than masitinib mesylate form I"},
      {"measurement": "weight gain in relative humidity interval (DVS)", "setting": "[1]; DVS isotherm from 40% r.h. to 70% r.h., form H from example 2", "value": "below 0.27 % (w/w)"},
      {"measurement": "water absorbed (DVS)", "setting": "[1]; interval of relative humidity between 40% and 70% r.h.", "value": "less than 0.5 weight %"}
    ]},
    {"substance": "Masitinib mesylate [crystal form I]", "values": [
      {"measurement": "hygroscopicity", "setting": "[2]; [5]", "value": "mildly hygroscopic"},
      {"measurement": "behaviour at 80% relative humidity", "setting": "[3]; 80% relative humidity", "value": "remains dry"},
      {"measurement": "thermodynamic stability", "setting": "[3]; at temperatures below 200° C.", "value": "thermodynamically stable"}
    ]},
    {"substance": "masitinib mesylate [DRX2]", "values": [
      {"measurement": "polymorphic conversion", "setting": "[2]", "value": "slowly, but fully, converts to DRX1"},
      {"measurement": "polymorphic stability", "setting": "[2]; [5]", "value": "stable only at 25 °C"}
    ]},
    {"substance": "masitinib mesylate [DRX3]", "values": [
      {"measurement": "polymorphic conversion", "setting": "[2]", "value": "quickly converts to DRX2"},
      {"measurement": "polymorphic stability", "setting": "[2]; [5]", "value": "stable under dry conditions only"}
    ]},
    {"substance": "masitinib mesylate [Comparative Example]", "values": [
      {"measurement": "polymorphic conversion upon heating", "setting": "[4]", "value": "converted to masitinib mesylate crystal form I upon heating"}
    ]}
  ]
}
